{"source": "PubChem BioAssay AID2060882", "about": "(Molecular Pharmacology Branch, DTP, NCI, 2025);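 note: spheroids exposed to compound for seven days before readout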;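 for viability, T/C: 100% = DMSO vehicle control wells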", "tested_on": "898857-211-R-J1-PDC complex spheroids, growth % test/control", "assay": "Anticancer human tumor 898857-211-R-J1-PDC patient-derived melanoma cell line growth inhibition [RAS]", "conditions": "for IC50: curve of first compound; for viability, T/C: stronger effect = lower value", "procedure,_shortened": "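Multi-cell-type spheroids: tumor cells plus HUVEC endothelial cells and mesenchymal stem cells. RAS-pathway inhibitors were combined with targeted agents, each dosed in half-log steps down from clinical Cmax, or from 10 microM when Cmax was unknown.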"}
{"smiles": "CC(C)NCC(C(=O)N1CCN(c2ncnc3c2C(C)CC3O)CC1)c1ccc(Cl)cc1", "note": "(configuration not stated) + CCn1c(-c2cccnc2C(C)OC)c2c3cc(ccc31)N1CCOC(CC(NC(=O)C(C(C)C)N(C)C(=O)C3(F)CCN(C(=O)C#CC(C)(C)N(C)C)CC3)C(=O)N3CCCC(N3)C(=O)OCC(C)(C)C2)C1", "values": [{"measurement": "IC50", "setting": "second compound 0.000949 µM", "value": "> 10", "unit": "µM"}, {"measurement": "IC50", "setting": "second compound 0.003 µM", "value": "> 10", "unit": "µM"}, {"measurement": "IC50", "setting": "second compound 0.00949 µM", "value": 9.66, "unit": "µM"}, {"measurement": "IC50", "setting": "second compound 0.03 µM", "value": 8.56, "unit": "µM"}, {"measurement": "IC50", "setting": "second compound 0.0949 µM", "value": 5.46, "unit": "µM"}, {"measurement": "IC50", "setting": "second compound 0.3 µM", "value": 3.31, "unit": "µM"}, {"measurement": "viability, T/C", "setting": "second compound 0.000949 µM, first compound 0.0316 µM", "value": 111, "unit": "%"}, {"measurement": "viability, T/C", "setting": "second compound 0.000949 µM, first compound 0.1 µM", "value": 101, "unit": "%"}, {"measurement": "viability, T/C", "setting": "second compound 0.000949 µM, first compound 0.316 µM", "value": 90.9, "unit": "%"}, {"measurement": "viability, T/C", "setting": "second compound 0.000949 µM, first compound 1 µM", "value": 91.6, "unit": "%"}, {"measurement": "viability, T/C", "setting": "second compound 0.000949 µM, first compound 3.16 µM", "value": 65.4, "unit": "%"}, {"measurement": "viability, T/C", "setting": "second compound 0.000949 µM, first compound 10 µM", "value": 50.9, "unit": "%"}, {"measurement": "viability, T/C", "setting": "second compound 0.003 µM, first compound 0.0316 µM", "value": 115, "unit": "%"}, {"measurement": "viability, T/C", "setting": "second compound 0.003 µM, first compound 0.1 µM", "value": 117, "unit": "%"}, {"measurement": "viability, T/C", "setting": "second compound 0.003 µM, first compound 0.316 µM", "value": 103, "unit": "%"}, {"measurement": "viability, T/C", "setting": "second compound 0.003 µM, first compound 1 µM", "value": 82.1, "unit": "%"}, {"measurement": "viability, T/C", "setting": "second compound 0.003 µM, first compound 3.16 µM", "value": 79.6, "unit": "%"}, {"measurement": "viability, T/C", "setting": "second compound 0.003 µM, first compound 10 µM", "value": 57.2, "unit": "%"}, {"measurement": "viability, T/C", "setting": "second compound 0.00949 µM, first compound 0.0316 µM", "value": 113, "unit": "%"}, {"measurement": "viability, T/C", "setting": "second compound 0.00949 µM, first compound 0.1 µM", "value": 110, "unit": "%"}, {"measurement": "viability, T/C", "setting": "second compound 0.00949 µM, first compound 0.316 µM", "value": 102, "unit": "%"}, {"measurement": "viability, T/C", "setting": "second compound 0.00949 µM, first compound 1 µM", "value": 84.8, "unit": "%"}, {"measurement": "viability, T/C", "setting": "second compound 0.00949 µM, first compound 3.16 µM", "value": 73, "unit": "%"}, {"measurement": "viability, T/C", "setting": "second compound 0.00949 µM, first compound 10 µM", "value": 48.7, "unit": "%"}, {"measurement": "viability, T/C", "setting": "second compound 0.03 µM, first compound 0.0316 µM", "value": 112, "unit": "%"}, {"measurement": "viability, T/C", "setting": "second compound 0.03 µM, first compound 0.1 µM", "value": 100, "unit": "%"}, {"measurement": "viability, T/C", "setting": "second compound 0.03 µM, first compound 0.316 µM", "value": 97.3, "unit": "%"}, {"measurement": "viability, T/C", "setting": "second compound 0.03 µM, first compound 1 µM", "value": 91.1, "unit": "%"}, {"measurement": "viability, T/C", "setting": "second compound 0.03 µM, first compound 3.16 µM", "value": 74.4, "unit": "%"}, {"measurement": "viability, T/C", "setting": "second compound 0.03 µM, first compound 10 µM", "value": 45.6, "unit": "%"}, {"measurement": "viability, T/C", "setting": "second compound 0.0949 µM, first compound 0.0316 µM", "value": 92, "unit": "%"}, {"measurement": "viability, T/C", "setting": "second compound 0.0949 µM, first compound 0.1 µM", "value": 89.4, "unit": "%"}, {"measurement": "viability, T/C", "setting": "second compound 0.0949 µM, first compound 0.316 µM", "value": 92.7, "unit": "%"}, {"measurement": "viability, T/C", "setting": "second compound 0.0949 µM, first compound 1 µM", "value": 76.4, "unit": "%"}, {"measurement": "viability, T/C", "setting": "second compound 0.0949 µM, first compound 3.16 µM", "value": 60.1, "unit": "%"}, {"measurement": "viability, T/C", "setting": "second compound 0.0949 µM, first compound 10 µM", "value": 39.7, "unit": "%"}, {"measurement": "viability, T/C", "setting": "second compound 0.3 µM, first compound 0.0316 µM", "value": 75, "unit": "%"}, {"measurement": "viability, T/C", "setting": "second compound 0.3 µM, first compound 0.1 µM", "value": 72.7, "unit": "%"}, {"measurement": "viability, T/C", "setting": "second compound 0.3 µM, first compound 0.316 µM", "value": 69.5, "unit": "%"}, {"measurement": "viability, T/C", "setting": "second compound 0.3 µM, first compound 1 µM", "value": 55.9, "unit": "%"}, {"measurement": "viability, T/C", "setting": "second compound 0.3 µM, first compound 3.16 µM", "value": 53.5, "unit": "%"}, {"measurement": "viability, T/C", "setting": "second compound 0.3 µM, first compound 10 µM", "value": 37.1, "unit": "%"}]}
